Earlier results on one compound are cited in article PMC3263412 (International Journal of Nanomedicine, 2012).

In the case of `CCCCCCCCCCCCCCCC[N+](C)(C)C` [CTAB, Cetyltrimethyl ammonium bromide], the cytotoxicity entry is “marked cytotoxicity”.
